Experimental data as given in ChEMBL document CHEMBL4251613, “Synthesis and biological evaluation of diarylheptanoids as potential antioxidant and anti-inflammatory agents” (Eur J Med Chem, 2018).
Calls of active or inactive are those of the source. The rule behind the calls is not given here.

Tests used:
RAW264.7 [1] = experiment: Cytotoxicity against mouse RAW264.7 cells assessed as reduction in cell viability at 30 uM after 18 hrs by MTT assay; assay type: cell-based; details: raw264.7, 18 h
RAW264.7 [2] = experiment: Anti-inflammatory activity in mouse RAW264.7 cells assessed as inhibition of LPS-induced IL-6 mRNA level at 30 uM preincubated for 30 mins followed by LPS stimulation measured after 4 hrs by RT-PCR method relative to control; assay type: functional
RAW264.7 [3] = experiment: Anti-inflammatory activity in mouse RAW264.7 cells assessed as inhibition of LPS-induced ROS production at 30 uM measured after 4 hrs by H2DCFDA-AM probe based fluorescence assay; assay type: functional, cell-based
RAW264.7 [4] = experiment: Anti-inflammatory activity in mouse RAW264.7 cells assessed as inhibition of LPS-induced NO production at 30 uM preincubated for 30 mins followed by LPS stimulation measured after 4 hrs by Griess assay relative to control; assay type: functional
RAW264.7 [5] = experiment: Cytotoxicity against mouse RAW264.7 cells assessed as reduction in cell viability at 30 to 50 uM after 18 hrs by MTT assay; assay type: cell-based; details: raw264.7, 18 h
RAW264.7 [6] = experiment: Anti-inflammatory activity in mouse RAW264.7 cells assessed as inhibition of LPS-induced IL-1beta mRNA level at 30 uM preincubated for 30 mins followed by LPS stimulation measured after 4 hrs by RT-PCR method relative to control; assay type: functional
RAW264.7 [7] = experiment: Anti-inflammatory activity in mouse RAW264.7 cells assessed as inhibition of LPS-induced ROS production measured after 4 hrs by H2DCFDA-AM probe based fluorescence assay; assay type: functional, cell-based; details: for IC50: RAW264.7, 4 h
RAW264.7 [8] = experiment: Cytotoxicity against mouse RAW264.7 cells assessed as reduction in cell viability up to 30 uM after 18 hrs by MTT assay; assay type: cell-based; details: raw264.7, 18 h
RAW264.7 [9] = experiment: Anti-inflammatory activity in mouse RAW264.7 cells assessed as inhibition of LPS-induced ROS production at 1 to 10 uM measured after 4 hrs by H2DCFDA-AM probe based fluorescence assay; assay type: functional, cell-based
[10] = Cytotoxicity against mouse RAW264.7 cells assessed as cell viability at 30 uM after 18 hrs by MTT assay relative to control; assay type: cell-based; details: read-out: Activity
RAW264.7 [11] = experiment: Cytotoxicity against mouse RAW264.7 cells assessed as reduction in cell viability after 18 hrs by MTT assay; assay type: cell-based; details: raw264.7, 18 h
RAW264.7 [12] = experiment: Cytotoxicity against mouse RAW264.7 cells assessed as reduction in cell viability at 30 uM after 1 hr by MTT assay; assay type: cell-based; details: raw264.7, 1 h

## Oc1ccc2cc1Oc1ccc(cc1)CCc1cn(nn1)CC2
RAW264.7 [1]
  Activity: Non-Toxic

## COc1ccc2cc1Oc1ccc(cc1)C[C@H](N)C(=O)NCCC2
RAW264.7 [2]
  inhibition at 30 µM: > 60%
RAW264.7 [3]
  inhibition: Active
RAW264.7 [4]
  inhibition at 30 µM: > 80%
RAW264.7 [5]
  Activity: Non-Toxic
RAW264.7 [1]
  Activity: Non-Toxic
RAW264.7 [6]
  inhibition at 30 µM: 30 to 50%
RAW264.7 [7]
  IC50: 30 µM
RAW264.7 [8]
  Activity: Non-Toxic

## Oc1ccc2cc1Oc1ccc(cc1)CC/C=C\C=C\C2
RAW264.7 [9]
  inhibition: inactive
[10]
  viability at 18 h, 30 µM: < 60%
RAW264.7 [2]
  inhibition: Active
RAW264.7 [11]
  Activity: Dose-dependent effect
RAW264.7 [3]
  inhibition: Active
RAW264.7 [4]
  inhibition at 30 µM: > 65%
RAW264.7 [6]
  inhibition: Active
RAW264.7 [7]
  IC50: 30 µM
RAW264.7 [12]
  Activity: Non-Toxic

## COc1ccc(CCC(O)/C=C\CCc2ccc(O)cc2)cc1Br (centres undefined)
RAW264.7 [3]
  inhibition: Active
RAW264.7 [1]
  Activity: Toxic
RAW264.7 [12]
  Activity: Non-Toxic

## COc1ccc(CCn2cc(CCc3ccc(O)cc3)nn2)cc1Br
RAW264.7 [1]
  Activity: Non-Toxic

## Cc1c(C)c2c(c(C)c1O)CCC(C)(C(=O)O)O2 (centres undefined) [TROLOX]
RAW264.7 [1]
  Activity: Non-Toxic
RAW264.7 [7]
  inhibition: Dose-dependent effect
  IC50: 30 µM

## N[C@H]1Cc2ccc(cc2)Oc2cc(ccc2O)CCCNC1=O
RAW264.7 [3]
  inhibition: inactive
RAW264.7 [1]
  Activity: Non-Toxic

## COc1ccc(CCCNC(=O)[C@@H](N)Cc2ccc(O)cc2)cc1Br
RAW264.7 [2]
  inhibition at 30 µM: > 60%
RAW264.7 [3]
  inhibition: Active
RAW264.7 [4]
  inhibition at 30 µM: > 80%
RAW264.7 [5]
  Activity: Non-Toxic
RAW264.7 [1]
  Activity: Non-Toxic
RAW264.7 [6]
  inhibition at 30 µM: 30 to 50%
RAW264.7 [7]
  IC50: 30 µM
RAW264.7 [8]
  Activity: Non-Toxic

## O=C1N[C@H]2Cc3ccc(cc3)Oc3cc(ccc3O)CCCN1C2=O
RAW264.7 [1]
  Activity: Non-Toxic

## COc1ccc2cc1Oc1ccc(cc1)CCc1cn(nn1)CC2
RAW264.7 [1]
  Activity: Non-Toxic

## Oc1ccc2cc1Oc1ccc(cc1)CC/C=C\C(O)CC2 (centres undefined)
RAW264.7 [2]
  inhibition at 30 µM: > 60%
RAW264.7 [3]
  inhibition: Active
RAW264.7 [4]
  inhibition at 30 µM: > 80%
RAW264.7 [5]
  Activity: Toxic
RAW264.7 [1]
  Activity: Non-Toxic
RAW264.7 [6]
  inhibition at 30 µM: 30 to 50%
RAW264.7 [7]
  IC50: 30 to 50 µM
RAW264.7 [8]
  Activity: Non-Toxic

## COc1ccc2cc1Oc1ccc(cc1)C[C@@H]1NC(=O)N(CCC2)C1=O
RAW264.7 [1]
  Activity: Non-Toxic

## O=C1CCc2ccc(cc2)Oc2cc(ccc2O)CCCN1
RAW264.7 [2]
  inhibition at 30 µM: > 60%
RAW264.7 [3]
  inhibition: Active
RAW264.7 [4]
  inhibition at 30 µM: 65%
RAW264.7 [5]
  Activity: Non-Toxic
RAW264.7 [1]
  Activity: Non-Toxic
RAW264.7 [6]
  inhibition at 30 µM: 30 to 50%
RAW264.7 [7]
  IC50: 30 to 50 µM
RAW264.7 [8]
  Activity: Non-Toxic

## COc1ccc2cc1Oc1ccc(cc1)CC/C=C\C(O)CC2 (centres undefined)
RAW264.7 [1]
  Activity: Non-Toxic

## COc1ccc2cc1Oc1ccc(cc1)CCC(=O)NCCC2
RAW264.7 [1]
  Activity: Non-Toxic

## COc1ccc(CCCNC(=O)CCc2ccc(O)cc2)cc1Br
RAW264.7 [2]
  inhibition at 30 µM: > 60%
RAW264.7 [3]
  inhibition: Active
RAW264.7 [4]
  inhibition at 30 µM: > 80%
RAW264.7 [5]
  Activity: Toxic
RAW264.7 [1]
  Activity: Non-Toxic
RAW264.7 [6]
  inhibition at 30 µM: 30 to 50%
RAW264.7 [7]
  IC50: 30 to 50 µM
RAW264.7 [8]
  Activity: Non-Toxic
